Assay results as given in PMC11861906, “Structural basis for lipid-mediated activation of G protein-coupled receptor GPR55” (Nature Communications, 2025).

Target: GPR55 mutant G152F (Gα13) (Homo sapiens, UniProt Q9Y2T6, G152F)
Assay: BRET² G protein dissociation assay, GPR55 G152F with Gα13
Type: cell-based
Description: To validate the functionality of the GPR55 cryo-EM construct, we conducted bioluminescence resonance energy transfer 2 (BRET²)-based G protein dissociation assays[46],[47] using an engineered heterotrimeric G13 protein. The N-terminal GFP fusion of the receptor was additionally modified with a G67A mutation to disrupt fluorescence properties. We employed human embryonic kidney (HEK) cells overexpressing wt or mutant GPR55 together with Gβ3, Gγ9-GFP, and Gα13 tagged with Renilla luciferase 8 (Rluc8).
G protein dissociation assays were performed according to the original protocols of the TRUPATH BRET² assay[47],[87] but with subtle modifications as previously described[61],[88],[89]. All reagents and cells were obtained from Thermo Fisher Scientific unless indicated otherwise. The coding sequences for the G protein biosensors[47] (Gα12-Rluc8, Gα13-Rluc8, wt Gβ3, and Gγ9-GFP), the wt GPR55, the construct used for cryo-EM (with GFP bearing a G67A mutation to disrupt fluorescence properties[48] for BRET² assays), GPR55 binding pocket mutants (G152^4.56F, G152^4.56W, N171^ECL2Q, N171^ECL2A, T176^5.33A, R253^6.62A), and the wt TBXA2R were codon-optimized for Homo sapiens, gene-synthesized, and sub-cloned into pcDNA^TM3.1(+) between NheI and HindIII restriction sites by GeneArt (Thermo Fisher Scientific). […] Freshly grown cells were washed with Dulbecco’s Balanced Salt Solution (DPBS, cat. #14200075) and detached using trypsin-ethylenediaminetetraacetic acid (trypsin-EDTA) (cat. #25300-062). Then, the cells were reconstituted to 500,000 cells per mL with fresh medium, and 1,000,000 cells were seeded into each well of a 6-well plate. After 3 h incubation at 37 °C and 5% CO2, adherent cells were transfected with 600 ng DNA (1:1:1:1 ratio of plasmid DNA for GPR55, wt Gβ3, Gγ9-GFP, and Gα12-Rluc8 or Gα13-Rluc8). Plasmid DNA was mixed with 1.5 µL Lipofectamine^TM 2000 (cat. #11668027) in Opti-MEM^TM medium (cat. #31985062) and incubated for 20 min. Then, the mixture was added to each well of the 6-well plate following 24 h incubation at 37 °C and 5% CO2. Transfected cells were washed with DPBS, detached using EDTA (Versene, cat. #15040066), and reconstituted into fresh medium at 500,000 cells mL^−1. From this suspension, 50,000 cells were seeded into each well of a white-bottom 96-well plate (Nunc^TM MicroWell^TM 96 wells, cat. #136101) following overnight incubation at 37 °C and 5% CO2. Then, the adherent cells were washed with assay medium [Hank’s balanced salt solution (HBSS, cat. #14065056) plus 20 mM HEPES pH 7.4 (cat. #15630056)] and finally reconstituted into 50 µL of the same medium. […] Methoxy e-Coelenterazine was used as luciferase substrate (Prolume Purple, NanoLight Technology, cat. #369), reconstituted at 1 mM in methanol and diluted to 37.5 µM with assay buffer (7.5 µM final assay concentration). The assay was started by the addition of 20 µL luciferase substrate to each well of the assay plate using a Multidrop^TM Combi reagent dispenser (Thermo Fisher Scientific), followed by 5 min incubation at room temperature. Then, 30 µL of agonist dilutions or DMSO control was added (final DMSO concentration 1.5%), followed by an additional 5 min incubation at room temperature. BRET² measurements were performed with a PHERAstar® FSX microplate reader (BMG LABTECH) using a BRET² filter (donor emission 370–450 nm, acceptor emission 500–530 nm) at the maximum fluorescence gain of 3600. BRET² ratios were calculated by dividing GFP emission signals from Rluc8 emission counts. Buffer-DMSO controls were subtracted from each data point to calculate ΔBRET² ratios.

Chain of GPR55 mutant G152F (Gα13) (Q9Y2T6 whole entry G152F): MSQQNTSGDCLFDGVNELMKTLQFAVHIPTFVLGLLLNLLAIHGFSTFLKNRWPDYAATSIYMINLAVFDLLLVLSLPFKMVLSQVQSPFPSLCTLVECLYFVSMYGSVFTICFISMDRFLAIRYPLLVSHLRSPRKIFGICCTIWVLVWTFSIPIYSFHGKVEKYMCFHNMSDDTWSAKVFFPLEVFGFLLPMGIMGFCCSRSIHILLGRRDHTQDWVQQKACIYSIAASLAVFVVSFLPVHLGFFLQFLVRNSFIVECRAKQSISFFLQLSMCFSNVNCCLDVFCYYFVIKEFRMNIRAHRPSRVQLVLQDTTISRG
Chain of GPR55 mutant G152F (Gα13) (Q14344 whole entry partner): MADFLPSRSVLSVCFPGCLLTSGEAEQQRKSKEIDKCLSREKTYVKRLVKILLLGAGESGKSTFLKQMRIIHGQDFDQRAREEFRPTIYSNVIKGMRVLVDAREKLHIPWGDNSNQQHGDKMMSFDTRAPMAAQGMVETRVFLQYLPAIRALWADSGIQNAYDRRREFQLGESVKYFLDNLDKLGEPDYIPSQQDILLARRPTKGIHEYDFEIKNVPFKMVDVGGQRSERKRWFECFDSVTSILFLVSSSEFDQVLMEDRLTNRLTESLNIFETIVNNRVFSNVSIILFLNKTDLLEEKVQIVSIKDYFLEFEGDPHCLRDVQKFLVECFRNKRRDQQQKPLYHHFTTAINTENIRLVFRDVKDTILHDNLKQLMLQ
Chain of GPR55 mutant G152F (Gα13) (P16520 whole entry partner): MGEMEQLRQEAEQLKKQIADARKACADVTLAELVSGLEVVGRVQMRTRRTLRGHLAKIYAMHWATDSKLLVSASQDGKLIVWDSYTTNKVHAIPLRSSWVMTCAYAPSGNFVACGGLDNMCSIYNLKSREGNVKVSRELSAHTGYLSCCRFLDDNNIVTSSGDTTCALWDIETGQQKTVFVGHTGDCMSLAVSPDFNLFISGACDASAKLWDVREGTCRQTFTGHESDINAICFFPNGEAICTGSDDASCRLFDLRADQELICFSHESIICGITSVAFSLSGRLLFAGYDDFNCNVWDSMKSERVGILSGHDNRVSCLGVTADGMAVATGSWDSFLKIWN
Chain of GPR55 mutant G152F (Gα13) (O14610 1-66 partner limits assumed): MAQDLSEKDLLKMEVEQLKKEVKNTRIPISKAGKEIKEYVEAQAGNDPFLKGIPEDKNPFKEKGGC

Row | Compound | Mean (plotted) BRET² response, GPR55-G152F-G13 (Concentration 300 pM) | Mean (plotted) BRET² response, GPR55-G152F-G13 (Concentration 1e-9 M) | Mean (plotted) BRET² response, GPR55-G152F-G13 (Concentration 3e-9 M) | Mean (plotted) BRET² response, GPR55-G152F-G13 (Concentration 1e-8 M) | Mean (plotted) BRET² response, GPR55-G152F-G13 (Concentration 3e-8 M) | Mean (plotted) BRET² response, GPR55-G152F-G13 (Concentration 1e-7 M) | Mean (plotted) BRET² response, GPR55-G152F-G13 (Concentration 3e-7 M) | Mean (plotted) BRET² response, GPR55-G152F-G13 (Concentration 1e-6 M) | Mean (plotted) BRET² response, GPR55-G152F-G13 (Concentration 3e-6 M) | Mean (plotted) BRET² response, GPR55-G152F-G13 (Concentration 1e-5 M) | Mean (plotted) BRET² response, GPR55-G152F-G13 (Concentration 3e-5 M) | reduction of potency compared to wt GPR55 (G152F mutant) | EC50 (GPR55 G152F, Gα13) [nM] | Emax at 30 µM (GPR55 G152F, Gα13, 30 µM ligand, same normalization, read-out: Efficacy ± SEM (%)) [%] | Mean (plotted) BRET² response, GPR55-G152F-G13 (Concentration 10 pM) | Mean (plotted) BRET² response, GPR55-G152F-G13 (Concentration 30 pM) | Mean (plotted) BRET² response, GPR55-G152F-G13 (Concentration 100 pM)
1 | Cc1cccc(N2CCN(C(=O)c3cc(S(=O)(=O)N(C)C)ccc3N3CCCC3)CC2)c1C [ML184, 3-[[4-(2,3-dimethylphenyl)-1-piperazinyl]carbonyl]-N,N-dimethyl-4-(1-pyrrolidinyl)benzenesulfonamide] | -0.004043 | -0.005951 | -0.01719 | -0.03259 | -0.04406 | -0.05628 | -0.06251 | -0.06831 | -0.07057 | -0.07761 | -0.07919 | remained unchanged | 21.9 | 108 ± 3 | – | – | –
2 | CCCCC[C@H](O)/C=C/[C@@H]1[C@@H](C/C=C\CCCC(=O)O)[C@H]2CO[C@@H]1C2 [U-46619] | -0.003135 | 0.0004643 | -0.004129 | -0.009075 | -0.001052 | -0.0003089 | -0.001149 | -0.0006267 | -0.009104 | -0.008346 | -0.007499 | – | – | – | -0.003 | 0.00205 | 0.0008
